We go through two compounds from patent US20080234341A1, “Carisoprodol and Phenytoin Methods” (MUTUAL PHARMACEUTICAL COMPANY, INC., priority 2006, published 2008).

Data set [1] in a line: Single-dose two-way crossover study of phenytoin pharmacokinetics, alone or co-administered with carisoprodol. To be noted: human, in vivo; for half-life / Tmax: least sq. mean. The method, then:
The study was designed as a randomized, single-dose two-way crossover to compare the pharmacokinetic parameters of carisoprodol (350 mg SOMA® (carisoprodol) Tablets by MedPointe Pharmaceuticals, MedPointe Healthcare Inc.) and phenyloin (PROMPT® Phenyloin Sodium 100 mg Capsules by IVAX Pharmaceuticals, Inc.). Twelve healthy adults participated in this comparison study and all of the subjects completed the study.
Subjects received two separate drug administration treatments in assigned periods, one treatment per period, according to the randomization schedule. Treatment (A) was 3 PROMPT® Phenyloin Sodium 100 mg capsules with 240 mL of room temperature water after an overnight fast. Treatment (B) was 3 PROMPT® Phenyloin Sodium 100 mg capsules and 2 tablets of SOMA® (carisoprodol 350 mg tablets) after an overnight fast.
Dosing days were separated by a washout period of at least fourteen days. Blood samples were drawn prior to dosing (pre-dose) and at 0.5, 1, 1.5, 2, 2.5, 3, 3.5, 4, 4.5, 5, 6, 7, 8, 10, 12, 18, 24, and 48 hours post-dose. The samples were then analyzed for total phenyloin. At study hours 2, 4, 6, 12 and 24 an additional blood sample was collected for the determination of “free” phenyloin.
The area under the plasma concentration versus time curve [AUCt] may be calculated using the linear trapezoidal rule from the zero time point to the last measured concentration.
The area under the plasma concentration versus time curve from zero to infinity [AUC0-INF] may be calculated by adding Ct/Kelm to AUC where Ct is the last measured concentration and Kelm is the elimination rate constant.
The maximum observed plasma concentration [Cmax] may be obtained by inspection.
The time to maximum plasma concentration [Tmax] may be obtained by inspection. If the same maximum plasma concentration occurs at more than one time point, the first may be chosen as Tmax.
The terminal elimination rate constant [Kelm] may be obtained from the slope of the line, fitted by linear least squares regression, through the terminal points of the ln(base e) of the concentration versus time plot for these points.
The half-life [T1/2] may be calculated by the equation T1/2=0.693/Kelm.

The test system of data set [2] is plasma proteins in the bloodstream such as albumin. To be noted: cited from earlier work.
Data set [3] in a line: Drug interaction study: carisoprodol added to a steady-state regimen of phenytoin. The note with it: human, in vivo; for half-life / Tmax: least sq. mean. The method, then:
A single-arm, two-way drug interaction study was conducted in which carisoprodol (350 mg SOMA®) was added to a steady state regimen of phenyloin (PROMPT® Phenyloin Sodium 100 mg Capsules). The effects of coadministration of carisoprodol at steady state conditions on the Cmax and AUC of phenyloin are summarized in Table 5. Twenty-four healthy adults participated in this comparison study and twenty-one of the subjects completed the study.
On study Days 1 through 14, a single 300 mg (1×300 mg capsule) dose of phenyloin sodium was administered to all study subjects following an overnight fast of at least 10 hours.
On study Days 15 through 28, a single 300 mg (1×300 mg capsule) dose of phenyloin sodium and a single 350 mg (1×350 mg tablet) dose of carisoprodol were co-administered to all study subjects following an overnight fast of at least 10 hours. A single dose of carisoprodol was re-administered to all study subjects 3 more times a day (every 6 hours) for Days 15 through 28.
Phenyloin: On study Days 14 and 28, 18 blood samples were collected (6 mL each) from each subject by direct venipuncture using pre-labeled Vacutainers® containing K2 EDTA as an anticoagulant. Blood samples were collected within one hour prior to dosing and after dose administration at study hours 0.5, 1, 1.5, 2, 2.5, 3, 3.5, 4, 4.5, 5, 6, 7, 8, 10, 12, 18, and 24.

The conditions of data set [4]: cited from earlier work.
For data set [5] the following is noted: cited from earlier work. This is another data set of the same source.

The term AUC(0-inf) denotes total exposure, with the tail of the curve extrapolated. One may read the AUC(0-t) as exposure summed from dosing to a finite time, without extrapolation to infinity. The term half-life denotes how long it takes for the measured level to halve. By Tmax is commonly meant the time from dosing to the highest level. For the compound `O=C1NC(=O)C(c2ccccc2)(c2ccccc2)N1` [Phenytoin, 5,5-diphenylhydantoin], in data set [1], the “AUC0-INF, free phenytoin, geometric mean” value worked out at 12927.88 ng·h/mL; the “AUC0-t, free phenytoin, geometric mean” value came out at 5150.25 ng·h/mL; the area under the curve AUC(0-inf) was 134 µg·h/mL; the AUC(0-t) worked out at 97300 ng·h/mL. Besides, in data set [1], the “Cmax, total phenytoin, geometric mean” value was 3222.2 ng/mL; the “Kelm, total phenytoin, least sq. mean” value came to 0.03395; the “kelm, free phenytoin, least sq. mean” value is recorded as 0.0279. In addition, the half-life in data set [1] (T1/2, free phenytoin) was 2150 min. Besides, the half-life in data set [1] (T1/2, total phenytoin) was 1430 min. For the same compound, the Tmax in data set [1] (free phenytoin) came out at 9.17 h. Besides, in data set [1] (total phenytoin), the Tmax is 7.44 h. Moreover, the “bound to plasma proteins” value in data set [2] was “about 90%”. In addition, in data set [3], the “AUC0-INF, free steady-state phenytoin, geometric mean” value amounted to 32701.49 ng·h/mL; the “AUC0-t, free steady-state phenytoin, geometric mean” value worked out at 14733.48 ng·h/mL; the “Cmax, total steady-state phenytoin, geometric mean” value worked out at 13604.17 ng/mL; the “kelm, free steady-state phenytoin, least sq. mean” value came out at 0.0312. The “kelm, total steady-state phenytoin, least sq. mean” value in data set [3] came to 0.0233. Besides, the “Cmax, free steady-state phenytoin, geometric mean” value in data set [3] (350 mg) worked out at 929.76 ng/mL. In data set [3] (T1/2, free steady-state phenytoin), this compound gave a half-life of 2130 min. This compound also gave a half-life in data set [3] (T1/2, total steady-state phenytoin) of 2370 min. For the same compound, the time of peak concentration (Tmax) in data set [3] (free steady-state phenytoin) was determined as 5.04 h. Also, in data set [3] (total steady-state phenytoin), the Tmax turned out to be 3.55 h. In addition, the “typical clinically effective serum level of unbound or free phenytoin (therapeutic range)” value in data set [4] (free phenytoin) was 1 to 2 µg/mL. Besides, in data set [4] (total phenytoin), the “typical clinically effective serum level of total phenytoin (therapeutic range)” value was 10 to 20 µg/mL.
Consider `CCCC(C)(COC(N)=O)COC(=O)NC(C)C` (centres unmarked) [Carisoprodol, N-isopropyl-2-methyl-2-propyl-1,3-propanediol dicarbamate], for which the “solubility in alcohol, chloroform, and acetone (descriptive)” value in data set [5] (alcohol, chloroform, acetone) is “freely soluble”. For the same compound, in data set [5] (water), the “solubility in water (descriptive)” value is listed as “very sparingly soluble”.
